Data set [1] has as its system Cyperus serotinus, Rottb. The experiment in a line: Preemergence weed control under flooded paddy conditions, CYPSE (Flatsedge). On herbicidal effect rating, CYPSE: meaning of each grade not given here. Format: in vivo. As to conditions: for herbicidal effect rating, CYPSE: rated three to four weeks after treatment; for CYPSE: herbicidal effect rating 0-9, three to four weeks after treatment.
The test system of data set [2] is Oryza sativa, (L.) Tebonnet. The data set is described as follows: Rice tolerance to post-transplant applications under flooded paddy conditions (Example 187), ORYSAT (Rice, Tebonnet). On herbicidal effect rating ORYSAT: meaning of each grade not given here. As to conditions: for herbicidal effect rating ORYSAT: rated three to four weeks after treatment; for ORYSAT: herbicidal effect rating 0-9, three to four weeks after treatment.
A further data set has as its system Cyperus iria. The data set is described as follows: Preemergence weed control under flooded paddy conditions, CYPIR (Rice Flatsedge). On herbicidal effect rating, CYPIR: meaning of each grade not given here. Format: in vivo. Conditions: flooded paddy; for herbicidal effect rating, CYPIR: rated three to four weeks after treatment; for CYPIR: herbicidal effect rating 0-9, three to four weeks after treatment.
The test system of data set [3] is Echinochloa oryzoides (Ard.) Fritsch. The data set is described as follows: Preemergence weed control under flooded paddy conditions, ECHORC (Watergrass (Calif.)). On herbicidal effect rating, ECHORC: meaning of each grade not given here. As to conditions: flooded paddy; for herbicidal effect rating, ECHORC: rated three to four weeks after treatment; for ECHORC: herbicidal effect rating 0-9, three to four weeks after treatment. Format: in vivo.

A further data set deals with Sagittaria pygmaea, L. The data set is described as follows: Preemergence weed control under flooded paddy conditions, SAGPY (Arrowhead (Pygmaea)). On herbicidal effect rating, SAGPY: meaning of each grade not given here. Format: in vivo. As to conditions: flooded paddy; for herbicidal effect rating, SAGPY: rated three to four weeks after treatment; for SAGPY: herbicidal effect rating 0-9, three to four weeks after treatment.
Data set [4] has as its system Monochoria vaginalis, Presl. The experiment in a line: Preemergence weed control under flooded paddy conditions, MOOVA (Monochoria). On herbicidal effect rating, MOOVA: meaning of each grade not given here. As to conditions: flooded paddy; for herbicidal effect rating, MOOVA: rated three to four weeks after treatment; for MOOVA: herbicidal effect rating 0-9, three to four weeks after treatment. The format is in vivo.
The mark [5] stands for this setting: Rate 0.0320 kg/ha, preemergence.
Setting [6] is: Rate 0.1250 kg/ha, preemergence.
Where [7] appears, read: Rate 0.0620 kg/ha, preemergence.
Where [8] appears, read: Rate 0.2500 kg/ha, preemergence.
The mark [9] stands for this setting: Rate 0.0320 kg/ha, preemergence weeds.
Setting [10] is: Rate 0.0620 kg/ha, preemergence weeds.
The mark [11] stands for this setting: Rate 0.1250 kg/ha, preemergence weeds.
The mark [12] stands for this setting: Rate 0.2500 kg/ha, preemergence weeds.
Setting [13] is: 0.0320 kg/ha, preemergence weeds.
[14] abbreviates: 0.0620 kg/ha, preemergence weeds.
Where [15] appears, read: 0.1250 kg/ha, preemergence weeds.
Setting [16] is: 0.2500 kg/ha, preemergence weeds.

Molecules are shown by their SMILES.

Regarding `CC(C)C=C(C#N)c1nsc2ccc(-n3c(=O)cc(C(F)(F)F)n(C)c3=O)cc12` [Example 591, 1,2-Benzisothiazole-3-acetonitrile, 5-[3,6-dihydro-3-methyl-2,6-dioxo-4-(trifluoromethyl)-1(2H)-pyrimidinyl]-alpha-(2-methylpropylidene)-], the “herbicidal effect rating, CYPSE” value in data set [1] (setting [5]) and in data set [1] (setting [6]) was 0.0 in each case. In addition, the “herbicidal effect rating ORYSAT” value in data set [2] (Rate 0.0320 kg/ha) is 2.0; in data set [2] (Rate 0.0620 kg/ha), 4.0; in data set [2] (Rate 0.1250 kg/ha) it was 4.0; in data set [2] (Rate 0.2500 kg/ha), 5.0. Moreover, the “herbicidal effect rating, CYPIR” value in the data set on Cyperus iria (setting [5]) amounted to 3.0; in the data set on Cyperus iria (setting [7]), 4.0; in the data set with Cyperus iria (setting [6]) it was 7.0; in the data set on Cyperus iria (setting [8]), 7.0. Besides, the “herbicidal effect rating, ECHORC” value in data set [3] (setting [5]) was 3.0; in data set [3] (setting [7]), 3.0; in data set [3] (setting [6]), 7.0; in data set [3] (setting [8]), 9.0. The “herbicidal effect rating, SAGPY” value came to 0.0 in the data set with Sagittaria pygmaea, L. (setting [5]); 3.0 in the data set with Sagittaria pygmaea, L. (setting [7]); 7.0 with Sagittaria pygmaea, L. (setting [6]); 7.0 in the data set with Sagittaria pygmaea, L. (setting [8]). Besides, the “herbicidal effect rating, MOOVA” value in data set [4] (setting [5]) is 7.0; in data set [4] (setting [7]) it was 9.0; in data set [4] (setting [6]), 9.0; in data set [4] (setting [8]) it was 9.0.

`C=CS(=O)(=O)NC(=O)C(C)Oc1ccc(C)cc1-c1nsc2ccc(-n3c(=O)cc(C(F)(F)F)n(C)c3=O)cc12` (stereo not shown) [Example 570, Propionamide, 2-{{2-{5-[3,6-dihydro-3-methyl-2,6-dioxo-4-(trifluoromethyl)-1(2H)-pyrimidinyl]-1,2-benzisothiazol-3-yl}-p-tolyl}oxy}-N-(vinylsulfonyl)-]: the “herbicidal effect rating, CYPSE” value in data set [1] (setting [5]), in data set [1] (setting [7]), in data set [1] (setting [6]) and in data set [1] (setting [8]) was 0.0 throughout. Also, the “herbicidal effect rating ORYSAT” value in data set [2] (Rate 0.0320 kg/ha) is reported as 0.0; in data set [2] (Rate 0.0620 kg/ha) it was 1.0; in data set [2] (Rate 0.1250 kg/ha) it was 2.0; in data set [2] (Rate 0.2500 kg/ha), 3.0. Further, the “herbicidal effect rating, CYPIR” value with Cyperus iria (setting [5]) worked out at 0.0; in the data set with Cyperus iria (setting [7]) it was 0.0; with Cyperus iria (setting [6]), 0.0; with Cyperus iria (setting [8]), 9.0. Also, the “herbicidal effect rating, ECHORC” value worked out at 0.0 in data set [3] (setting [5]), 2.0 in data set [3] (setting [7]), 4.0 in data set [3] (setting [6]) and 6.0 in data set [3] (setting [8]). Further, the “herbicidal effect rating, SAGPY” value in the data set with Sagittaria pygmaea, L. (setting [5]) came out at 0.0; in the data set with Sagittaria pygmaea, L. (setting [7]) it was 0.0; in the data set on Sagittaria pygmaea, L. (setting [6]), 0.0; in the data set on Sagittaria pygmaea, L. (setting [8]), 0.0. The “herbicidal effect rating, MOOVA” value in data set [4] (setting [5]) is listed as 0.0; in data set [4] (setting [7]), 0.0; in data set [4] (setting [6]) it was 0.0; in data set [4] (setting [8]), 9.0.

For `CC(O)c1nsc2ccc(-n3c(=O)cc(C(F)(F)F)n(C)c3=O)cc12` (stereo not shown) [Example 308, 2,4(1H,3H)-Pyrimidinedione, 3-[3-(1-hydroxyethyl)-1,2-benzisothiazol-5-yl]-1-methyl-6-(trifluoromethyl)-], the “herbicidal effect rating, CYPSE” value came to 0.0 in data set [1] (setting [9]), 0.0 in data set [1] (setting [10]), 3.0 in data set [1] (setting [11]) and 9.0 in data set [1] (setting [12]). Further, the “herbicidal effect rating ORYSAT” value is reported as 5.0 in data set [2] (Rate 0.0320 kg/ha), 5.0 in data set [2] (Rate 0.0620 kg/ha), 6.0 in data set [2] (Rate 0.1250 kg/ha) and 7.0 in data set [2] (Rate 0.2500 kg/ha). Also, the “herbicidal effect rating, CYPIR” value in the data set on Cyperus iria (setting [9]), with Cyperus iria (setting [10]), in the data set with Cyperus iria (setting [11]) and with Cyperus iria (setting [12]) was 0.0 each time. The “herbicidal effect rating, ECHORC” value in data set [3] (setting [9]) is 5.0; in data set [3] (setting [10]), 5.0; in data set [3] (setting [11]), 6.0; in data set [3] (setting [12]) it was 9.0. The “herbicidal effect rating, SAGPY” value in the data set with Sagittaria pygmaea, L. (setting [9]) is 0.0; with Sagittaria pygmaea, L. (setting [10]), 0.0; in the data set on Sagittaria pygmaea, L. (setting [11]), 3.0; in the data set with Sagittaria pygmaea, L. (setting [12]) it was 9.0. For the same compound, the “herbicidal effect rating, MOOVA” value in data set [4] (setting [9]), in data set [4] (setting [10]), in data set [4] (setting [11]) and in data set [4] (setting [12]) was 0.0 throughout.

`Cn1c(C(F)(F)F)cc(=O)n(-c2ccc3snc(C(=O)NS(=O)(=O)Cc4ccccc4[N+](=O)[O-])c3c2)c1=O` [Example 404, 1,2-Benzisothiazole-3-carboxamide, 5-[3,6-dihydro-3-methyl-2,6-dioxo-4-(trifluoromethyl)-1(2H)-pyrimidinyl]-N-[(o-nitrobenzyl)sulfonyl]-]: the CYPSE in data set [1] (setting [13]), in data set [1] (setting [14]), in data set [1] (setting [15]) and in data set [1] (setting [16]) was 0.0 throughout. Further, the ORYSAT in data set [2] (0.0320 kg/ha) is 0.0; in data set [2] (0.0620 kg/ha) it was 0.0; in data set [2] (0.1250 kg/ha) it was 0.0; in data set [2] (0.2500 kg/ha) it was 2.0. Further, the CYPIR in the data set on Cyperus iria (setting [13]) amounted to 0.0; with Cyperus iria (setting [14]) it was 0.0; in the data set on Cyperus iria (setting [15]), 2.0; in the data set with Cyperus iria (setting [16]) it was 6.0. In addition, the ECHORC is given as 0.0 in data set [3] (setting [13]), 3.0 in data set [3] (setting [14]), 6.0 in data set [3] (setting [15]) and 7.0 in data set [3] (setting [16]). In addition, the SAGPY in the data set with Sagittaria pygmaea, L. (setting [13]) is recorded as 0.0; with Sagittaria pygmaea, L. (setting [14]), 0.0; in the data set on Sagittaria pygmaea, L. (setting [15]) it was 0.0; in the data set on Sagittaria pygmaea, L. (setting [16]), 0.0. Moreover, the MOOVA in data set [4] (setting [13]) came to 4.0; in data set [4] (setting [14]), 5.0; in data set [4] (setting [15]), 5.0; in data set [4] (setting [16]) it was 6.0.

On to `Cn1c(C(F)(F)F)cc(=O)n(-c2cc3c(CC#N)nsc3cc2F)c1=O` [Example 379, 1,2-Benzisothiazole-3-acetonitrile, 5-[3,6-dihydro-3-methyl-2,6-dioxo-4-(trifluoromethyl)-1(2H)-pyrimidinyl]-6-fluoro-], for which the “herbicidal effect rating, CYPSE” value in data set [1] (setting [5]) is given as 2.5; in data set [1] (setting [7]), 6.5; in data set [1] (setting [6]) it was 8.5; in data set [1] (setting [8]), 8.5. Also, the “herbicidal effect rating ORYSAT” value in data set [2] (Rate 0.0320 kg/ha) is given as 7.0; in data set [2] (Rate 0.0620 kg/ha), 8.5; in data set [2] (Rate 0.1250 kg/ha), 9.0; in data set [2] (Rate 0.2500 kg/ha) it was 9.0. In addition, the “herbicidal effect rating, CYPIR” value was found to be 5.5 in the data set with Cyperus iria (setting [5]), 7.5 with Cyperus iria (setting [7]), 9.0 in the data set on Cyperus iria (setting [6]) and 9.0 in the data set on Cyperus iria (setting [8]). Besides, the “herbicidal effect rating, ECHORC” value in data set [3] (setting [5]) worked out at 2.0; in data set [3] (setting [7]), 5.0; in data set [3] (setting [6]) it was 7.5; in data set [3] (setting [8]), 8.0. Moreover, the “herbicidal effect rating, SAGPY” value in the data set with Sagittaria pygmaea, L. (setting [5]) turned out to be 3.5; with Sagittaria pygmaea, L. (setting [7]), 6.5; with Sagittaria pygmaea, L. (setting [6]) it was 9.0; in the data set with Sagittaria pygmaea, L. (setting [8]) it was 9.0. Moreover, the “herbicidal effect rating, MOOVA” value in data set [4] (setting [5]), in data set [4] (setting [7]), in data set [4] (setting [6]) and in data set [4] (setting [8]) was 9.0 in each case.

Source of the values: patent EP0908457B1, “3-(1,2-benzisothiazol- and isoxazol-5-Y1)-2,4(1H,3H)-pyrimidinedione or thione and 3-(1,2-benzisothiazol- and isoxazol-5-y1)-4(3H)-pyrimidinone or thione herbicidal agents” (BASF AKTIENGESELLSCHAFT, priority 1997, dated 1999).
